From patent publication US10214512B2, “Factor XIA inhibitors” (MERCK SHARP & DOHME CORP., priority 2015, dated 2019)
Where two headings read alike, the source gives them in different places.

Assays:
[1] = molecular target: purified Human plasma Kallikrein (Homo sapiens (Human), UniProt P03952); test: Kallikrein Assay; format: biochemical
Protocol: The effectiveness of a compound of the present invention as an inhibitor of Kallikrein can be determined using a relevant purified serine protease, and an appropriate synthetic substrate. The rate of hydrolysis of the chromogenic or fluorogenic substrate by the relevant serine protease was measured both in the absence and presence of compounds of the present invention. Assays were conducted at rt or at 37° C. […] A decrease in the rate of fluorescence change in the presence of inhibitor is indicative of enzyme inhibition. Such methods are known to one skilled in the art. The results of this assay are expressed as the inhibitory constant, Ki.
Kallikrein determinations were made in 50 mM HEPES buffer at pH 7.4 containing 150 mM NaCl, 5 mM CaCl2, and 0.1% PEG 8000 (polyethylene glycol; Fisher Scientific). Determinations were made using purified Human plasma Kallikrein at a final concentration of 0.5 nM (Enzyme Research Laboratories) and the synthetic substrate, Acetyl-K-P-R-AFC (Sigma # C6608) at a concentration of […].
Times required to achieve equilibration between enzyme and inhibitor were determined in control experiments. […] IC50 was determined by inflection point from a four parameter logistic curve fit. Ki was calculated using the Cheng Prusoff equation, Ki=IC50/(1+([S]/Km)).

[2] = molecular target: purified human Factor XIa (Homo sapiens (Human), UniProt P03951); test: Factor XIa Assay; format: biochemical; conditions: purified human Factor XIa 40 pM; substrate Z-Gly-Pro-Arg-AFC 100 μM; 50 mM HEPES pH 7.4; read-out: Human FXIa Ki
How it was run: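 Ki obtained from the dependence of uninhibited/inhibited initial-velocity ratio on inhibitor concentration, under a competitive-inhibition model. Reactions used 100 μM Z-Gly-Pro-Arg-AFC and 40 pM final human Factor XIa in pH 7.4 HEPES buffer with NaCl, CaCl2 and PEG 8000; run at rt or 37° C following pre-equilibration.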

[3] = purified Human plasma Kallikrein 0.5 nM, substrate Acetyl-K-P-R-AFC, 50 mM HEPES pH 7.4, Ki from IC50 by Cheng Prusoff

Chain of purified human Factor XIa (P03951 388-625): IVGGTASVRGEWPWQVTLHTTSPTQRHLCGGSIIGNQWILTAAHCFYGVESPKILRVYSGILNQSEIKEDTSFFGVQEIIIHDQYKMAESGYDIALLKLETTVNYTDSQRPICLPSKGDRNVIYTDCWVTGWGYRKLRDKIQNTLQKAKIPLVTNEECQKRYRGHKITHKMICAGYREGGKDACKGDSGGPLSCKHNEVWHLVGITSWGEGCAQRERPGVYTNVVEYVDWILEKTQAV
Chain of purified human Factor XIa (P03951 19-387 partner): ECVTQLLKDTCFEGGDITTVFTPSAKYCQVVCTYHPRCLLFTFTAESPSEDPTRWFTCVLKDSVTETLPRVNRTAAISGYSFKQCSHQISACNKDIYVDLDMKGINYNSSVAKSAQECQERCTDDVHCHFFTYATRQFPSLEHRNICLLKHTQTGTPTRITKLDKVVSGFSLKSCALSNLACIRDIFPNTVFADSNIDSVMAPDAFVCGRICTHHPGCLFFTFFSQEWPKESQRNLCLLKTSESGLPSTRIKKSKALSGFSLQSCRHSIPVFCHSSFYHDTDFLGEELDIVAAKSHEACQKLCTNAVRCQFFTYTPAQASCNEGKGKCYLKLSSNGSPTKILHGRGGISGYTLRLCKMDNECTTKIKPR
Chain of purified Human plasma Kallikrein (P03952 391-638): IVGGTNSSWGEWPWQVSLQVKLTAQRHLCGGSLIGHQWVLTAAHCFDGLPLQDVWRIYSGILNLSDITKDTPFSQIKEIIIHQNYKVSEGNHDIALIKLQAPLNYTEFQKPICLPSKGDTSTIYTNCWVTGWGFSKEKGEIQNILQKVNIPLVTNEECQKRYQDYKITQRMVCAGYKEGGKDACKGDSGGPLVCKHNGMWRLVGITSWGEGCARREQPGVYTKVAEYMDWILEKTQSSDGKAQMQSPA
Chain of purified Human plasma Kallikrein (P03952 20-390 partner): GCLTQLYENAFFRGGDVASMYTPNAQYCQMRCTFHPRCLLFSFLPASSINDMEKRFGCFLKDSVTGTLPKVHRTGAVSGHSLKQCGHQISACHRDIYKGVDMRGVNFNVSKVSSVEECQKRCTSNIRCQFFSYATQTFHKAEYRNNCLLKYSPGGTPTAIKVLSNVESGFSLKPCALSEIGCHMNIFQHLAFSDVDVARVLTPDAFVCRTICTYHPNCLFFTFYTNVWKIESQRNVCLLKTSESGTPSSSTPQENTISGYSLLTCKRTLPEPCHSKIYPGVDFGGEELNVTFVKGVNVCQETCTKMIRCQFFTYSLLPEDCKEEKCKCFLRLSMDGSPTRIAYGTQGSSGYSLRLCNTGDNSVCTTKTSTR

Ki [1, 3] [nM] | Ki [2] [nM] | Compound | Ki [1] [nM]
13.6 | 0.39 | O=C1CCCCC(c2ccc(-c3cc(F)ccc3-n3cnnn3)c[n+]2[O-])c2cccc(c2)-c2cc(F)ccc2N1 (single isomer, unassigned) [Example 89-a, 5-(5-fluoro-2-(1H-tetrazol-1-yl)phenyl)-2-(2^5-fluoro-4-oxo-3-aza-1(1,3),2(1,2)-dibenzenacyclononaphane-9-yl)pyridine 1-oxide] | –
149 | 14.1 | O=C1CCCCC(c2ccc(-c3cc(Cl)ccc3-n3cnnn3)cn2)c2ccnc(c2)-c2cc(F)ccc2N1 (stereo not shown) [Example 56, 9-(5-(5-chloro-2-(1h-tetrazol-1-yl)phenyl)pyridin-2-yl)-25-fluoro-3-aza-1(2,4)-pyridina-2(1,2)-benzenacyclononaphan-4-one] | –
4 | 0.47 | O=C1CCCCC(c2ccc(-c3cc(Cl)ccc3-n3cnnn3)c[n+]2[O-])c2c[nH]c(n2)-c2cc(F)ccc2N1 (racemic) [Example 160, (Z)-5-(5-chloro-2-(1H-tetrazol-1-yl)phenyl)-2-(2^5-fluoro-4-oxo-1^1H-3-aza-1(2,4)-imidazola-2(1,2)-benzenacyclononaphane-9-yl)pyridine 1-oxide] | –
3.5 | 0.66 | COC(=O)Nc1ccc2c(c1)NC(=O)CC1CC1CC(c1ccc(-c3c(OC(F)F)ccc(Cl)c3F)c[n+]1[O-])c1nc-2c(C)[nH]1 (racemic) [Example 159] | –
0.34 | 0.19 | COC(=O)Nc1ccc2c(c1)NC(=O)CCCCC(c1ccc(-c3c(F)ccc(Cl)c3F)c[n+]1[O-])c1nc-2c(C)[nH]1 (single isomer, unassigned) [Example 111-a, (Z)-5-(3-chloro-2,6-difluorophenyl)-2-(2^4-((methoxycarbonyl)amino)-1^5-methyl-4-oxo-1^1H-3-aza-1(4,2)-imidazola-2(1,2) -benzenacyclononaphane-9-yl)pyridine 1-oxide] | –
1.61 | 0.33 | COC(=O)Nc1ccc2c(c1)NC(=O)[C@@H](C)CCC[C@H](c1ccc(-c3c(F)cccc3F)c[n+]1[O-])c1nc-2c(C)[nH]1 (single isomer, unassigned) [Example 143-a] | –
13.6 | 1.55 | COC(=O)Nc1ccc2c(c1)NC(=O)CC1CC1CC(c1ccc(-c3c(F)cccc3C(F)F)c[n+]1[O-])c1nc-2c(C)[nH]1 (racemic) [Example 156] | –
10.2 | 2.1 | COC(=O)Nc1ccc2c(c1)NC(=O)C[C@H]1C[C@@H]1C[C@H](c1ccc(-c3c(F)ccc(Cl)c3F)c[n+]1[O-])c1cccc-2c1 (single isomer, unassigned) [Example 66] | –
2.09 | 0.37 | O=C1CCCCC(c2ccc(-c3cc(Cl)ccc3-n3cnnn3)c[n+]2[O-])c2ccnc(c2)-c2cc(F)ccc2N1 (stereo not shown) [Example 70, 5-(5-chloro-2-(1H-tetrazol-1-yl)phenyl)-2-(2^5-fluoro-4-oxo-3-aza-1(2,4)-pyridina-2(1,2)-benzenacyclononaphane-9-yl)pyridine 1-oxide] | –
376 | 1.37 | O=C1CCCC[C@H](c2ccc(-c3cc(Cl)ccc3-n3cc(C(F)(F)F)cn3)c[n+]2[O-])c2cccc(c2)-c2c(cnn2C(F)F)N1 (single isomer, unassigned) [Example 167] | –
1.76 | 2.1 | O=C1CCCC[C@H](c2ccc(-c3c(F)ccc(Cl)c3F)c[n+]2[O-])c2cccc(c2)-c2ccc(Nc3ncccn3)cc2N1 [Example 48, (S)-5-(3-chloro-2,6-difluorophenyl)-2-(4-oxo-2^4-(pyrimidin-2-YLAMINO)-3-AZA-1 (1,3),2(1,2)-dinenzenacyclononaphane-9-yl)pyridine 1-oxide] | –
11.3 | 5.1 | COC(=O)Nc1ccc2c(c1)NC(=O)CCCCC(c1ccc(-c3c(F)ccc(Cl)c3F)c[n+]1[O-])c1cc[n+]([O-])c-2c1 (stereo not shown) [Example 94, 9-(5-(3-Chloro-2,6-difluorophenyl)-1-oxidopyridin-2-yl)-2^4-((methoxycarbonyl)amino)-4-oxo-3-aza-1(2,4)-pyridin-1-iuma-2(1,2) -benzenacyclononaphane 1-oxide] | –
0.36 | 0.13 | COC(=O)Nc1ccc2c(c1)NC(=O)CCCC[C@H](c1ccc(-c3cc(Cl)ccc3-n3cc(Cl)nn3)c[n+]1[O-])c1cccc-2c1 (single isomer, unassigned) [Example 37] | –
2170 | 30.3 | O=C(C1CCCCC(c2ccc(-c3cc(Cl)ccc3-n3cnnn3)c[n+]2[O-])c2cccc(c2)-c2cc(F)ccc2N1)N1CCCC1 (single isomer, unassigned) [Example 79-d, 5-(5-Chloro-2-(1H-tetrazol-1-yl)phenyl)-2-(2^5-fluoro-4-(pyrrolidine-1-carbonyl)-3-aza-1(1,3),2(1,2)-dibenzenacyclononaphane-9-yl)pyridine 1-oxide] | –
376 | 1.37 | C[C@@H]1CCC[C@H](c2ccc(-c3ccccc3-n3cc(Cl)nn3)c[n+]2[O-])c2cccc(c2)-c2c(cnn2C(F)F)NC1=O (single isomer, unassigned) [Example 172-a] | –
1.72 | 0.12 | COC(=O)Nc1ccc2c(c1)NC(=O)CCCC[C@H](c1ccc(-c3cc(F)ccc3OC(F)F)c[n+]1[O-])c1nc-2c(C)[nH]1 (single isomer, unassigned) [Example 129] | –
10.6 | 3.5 | COC(=O)Nc1ccc2c(c1)NC(=O)C(C)CCCC(c1ccc(-c3c(F)ccc(Cl)c3F)c[n+]1[O-])c1cccc-2c1 (single isomer, unassigned) [Example 50-b, 5-(3-chloro-2,6-difluorophenyl)-2-(2^4-((methoxycarbonyl)amino)-5-methyl-4-oxo-3-aza-1(1,3),2(1,2)-dinenzenacyclononaphane-9-yl)pyridine 1-oxide] | –
0.74 | 0.14 | Cc1[nH]c2nc1-c1ccc(N)cc1NC(=O)CCCC[C@@H]2c1ccc(-c2c(F)ccc(Cl)c2F)c[n+]1[O-] (single isomer, unassigned) [Example 128] | –
10.6 | 0.57 | C[C@H]1CCC[C@H](c2ccc(-c3cc(Cl)ccc3-n3cnnn3)c[n+]2[O-])c2cccc(c2)-c2cc(F)ccc2NC1=O [Example 3-b, 5-(5-chloro-2-(1H-tetrazol-1-yl)phenyl)-2-((5S,9S)-2^5-fluoro-5-methyl-4-oxo-3-aza-1(1,3),2(1,2)-dibenzenacyclononaphane-9-yl)pyridine 1-oxide] | –
5.36 | 1.65 | COC(=O)Nc1ccc2c(c1)NC(=O)C(C)CCCC(c1ccc(-c3c(F)ccc(Cl)c3F)c[n+]1[O-])c1ccc(F)c-2c1 (single isomer, unassigned) [Example 86-d, 5-(3-Chloro-2,6-difluorophenyl)-2-(1^6-fluoro-2^4-((methoxycarbonyl)amino)-5-methyl-4-oxo-3-aza-1(1,3),2(1,2) -dibenzenacyclononaphane-9-yl)pyridine 1-oxide] | –
5.94 | 0.22 | COC(=O)Nc1ccc2c(c1)NC(=O)CCCC[C@H](c1ccc(-c3cc(F)ccc3OC(F)(F)F)c[n+]1[O-])c1nc-2c(C)[nH]1 (single isomer, unassigned) [Example 132] | –
17.2 | 0.56 | O=C1CCCCC(c2ccc(-c3cc(Cl)ccc3-n3cc(C(F)F)nn3)c[n+]2[O-])c2nc(c[nH]2)-c2cc(F)ccc2N1 (single isomer, unassigned) [Example 105-a, (Z)-5-(5-Chloro-2-(4-(difluoromethyl)-1H-1,2,3-triazol-1-yl)phenyl)-2-(2^5-fluoro-4-oxo-1^1H-3-aza-1 (4,2)-imidazola-2(1,2)-benzenacyclononaphane-9-yl)pyridine 1-oxide] | –
26.3 | 10.8 | O=C1CCCCC(c2ccc(-c3c(F)ccc(Cl)c3F)c[n+]2[O-])c2nc(c[nH]2)-c2cc(F)ccc2N1 (single isomer, unassigned) [Example 104-a] | –
2.96 | 0.5 | COC(=O)Nc1ccc2c(c1)NC(=O)CCCC[C@H](c1ccc(-c3c(F)ccc(Cl)c3F)c[n+]1[O-])c1cc-2ncc1F (single isomer, unassigned) [Example 72] | –

Compound | Ki [1, 3] [nM] | Ki [2] [nM] | Ki [1] [nM]
2-(2^5-carboxy-4-oxo-3-aza- 1(1,3),2(1,2)- dibenzenacyclononaphane-9-yl)-5- (3-chloro-2,6-difluorophenyl)pyridine 1-oxide [Example 9] | 379 | 13.6 | –
O=C1CCCC[C@H](c2ccc(-c3cc(Cl)ccc3-n3cnnn3)c[n+]2[O-])c2cccc(c2)-c2cc(C(=O)O)ccc2N1 [Example 4-a, 2-(2^5-Carboxy-4-oxo-3-aza-1(1,3),2(1,2)-dibenzenacyclononaphane-9-yl)-5-(5-chloro-2-(1H-tetrazol-1-yl)phenyl)pyridine 1-oxide] | – | 0.31 | 3.41
